Assay results taken from patent US6799123B2, “Dissolution test equipment and method” (priority 2001, dated 2004).
Read-outs that look alike come from different tables or passages of the source.

Assays:
[1] = Single cell dissolution test (comparative); assay type: physicochemical; details: flow rate optimized to match in vivo data
Description: Equipment was set up as follows: A continuous, stirred, filtration cell, such as the Amicon stirred ultrafiltration cell model 8050, available from Millipore Corporation, was equipped with a peristaltic pump to feed fluid into the cell at a rate in the range 3-10 ml/min. The filtrate from the cell was passed into a 1 cm path length flow-through quartz uv cell. The uv cell is situated in a suitable uv spectrophotometer, such as the Genesys 2, UV Spectrophotemer available from Spectronic Instruments. The filtration cell was fitted with a 3 micron filter to retain undissolved particles. 60 ml of simulated intestinal fluid pH 7.4 was added to the filtration cell, and then simulated intestinal fluid was fed into it via the pump at a flow rate of 6.5 ml/min. This was continued until the absorbance at 276 nm as measured in the uv cell was constant. 50 mg of diclofenac sodium was then added to the filtration cell. The uv absorbance at 276 nm of the effluent from the cell was recorded through the duration of the test. The concentration was calculated using a suitably determined calibration curve. In Table 1 the data from this experiment is compared with in vivo data reported in U.S. Pat. No. 4,510,128. The flow rate for this example was optimized such that the uv absorbance returned to baseline within approximately the same time (8 hours) as the in vivo data.

[2] = cited from earlier work
[3] = in vivo blood plasma concentration profile from literature; cited from earlier work

Compound | time for uv absorbance of effluent to return to baseline [1] | solubility ([2]; low pH of the stomach) | solubility ([2]; near neutral conditions of the upper GI) | t10 for in vivo data (time after Cmax to fall to 10% of Cmax) [3] | tmax for in vivo data [3]
O=C(O)Cc1ccccc1Nc1c(Cl)cccc1Cl [diclofenac sodium] | ~8 h | essentially insoluble | soluble | – | –
CC(C)Cc1ccc(C(C)C(=O)O)cc1 (stereo not drawn) [ibuprofen] | – | – | – | 410 min | 1.17 h
CC(=O)Nc1ccc(O)cc1 [paracetamol] | – | – | – | 510 min | 0.55 h
CN[C@@H](C)[C@@H](O)c1ccccc1 [pseudoephedrine] | – | – | – | 1380 min | 1.5 h
